From US20240302376A1, “METHOD FOR IDENTIFYING SUBGROUPS OF CIRCULATING TUMOR CELLS (CTCS) IN THE CTC POPULATION OF A BIOLOGICAL SAMPLE” (priority 2012, published 2024)

Key:
[1] = tested on: Pt-(GpG) adducts in DNA of CTC and CD45-positive cells; assay: Pt-(GpG) DNA adducts in CD45/CD15-depleted mononuclear cell fraction exposed to cisplatin ex vivo; format: cell-based, human; details: after exposure to cisplatin, NSCLC patient blood
Excerpt: Pt-(GpG) intrastrand crosslinks are the major DNA adducts induced by platinum-based anticancer drugs. […] Pt-(GpG) DNA adducts in CTCs treated with cisplatin in medium upfront to systemic therapy from patients with advanced non-small-cell lung cancer (NSCLC) was studied.
Blood was drawn before systemic treatment and the CD45/CD15-depleted fraction of mononuclear cells was exposed to cisplatin, verified for the presence of CTC by pan-cytokeratin (pCK) staining and immunoanalysed for the level of Pt-(GpG) in DNA. Pt-(GpG) adducts can be detected in CTC from NSCLC patients and assessing their kinetics constitutes a clinically feasible biomarker for response prediction and dose individualisation of platinum-based chemotherapy.
Epithelial CTCs were detected that stained positive for DAPI and pCK and negative for CD45. The ratio of pCK− positive to CD45-positive cells in the depleted fractions was in the range of […], resulting in up to three CTC per cell spot on the slides. […]
The measurement of Pt-(GpG) adducts in the nuclear DNA of short term-exposed CTC depict a characteristic time course of formation and removal. […] The degree of association was calculated between these three values of ex vivo adduct persistence in CTC from 11 patients with their therapeutic response using the Spearman's rho rank correlation coefficient. […]

[2] = tested on: Pt-(GpG) in the DNA of CTC; assay: Pt-(GpG) adduct levels in CTC after cisplatin infusion versus ex vivo exposure; design: species or system human; details: clinical dose 50 mgm_2 (1.4 mg kg_1 body weight); blood at baseline and 2, 4 and 24 h after infusion; same patient
Protocol: To test whether adduct kinetics measured in tumour cells after ex vivo exposure to cisplatin mirror the formation and repair rates for Pt-(GpG) in the DNA of those cells in vivo during systemic treatment, blood samples from the same patient were analysed under both the conditions.

Compound: N.N.[Cl][Pt][Cl] [cisplatin]
- levels of DNA platination in CD45-positive cells as compared with CTC (fold lower) [1]: ~10 fold
- CTC adduct levels after clinical dose versus ex vivo exposure [2]: comparable to a short time ex vivo exposure with 20 mgml_1 for 2 h
